According to patent US20180243421A1, “IMMUNOSTIMULATING AGENT” (AJINOMOTO CO., INC., priority 2015, published 2018):

Test system: anti-influenza IgA antibody
Experiment: Transnasal influenza vaccine adjuvant activity: anti-influenza IgA antibody in nasal cavity wash
Format: in vivo, BALB/c mice
Details: Example 4, influenza HA vaccine 20 μl, SZ62 1 μg, Poly(I:C) 5 μg, two weeks from secondary immunization

Row | Compound | anti-influenza IgA antibody production in nasal cavity wash as compared to the influenza vaccine single administration group
1 | polyinosinic polycytidylic acid [Poly(I:C), reference compound] | a significant increase was not found

Test system: anti-OVA-specific IgG1 subclass antibody
Experiment: Adjuvant activity after primary immunization: anti-OVA-specific IgG1 subclass antibody in serum (Examples 13-18)
Format: in vivo, BALB/c mice
Details: Example 17; OVA 5 μg + 0.256 μmol in 5% αCD saline s.c.; serum after 12 days
Experimental: 8-Week-old female BALB/c mice were divided into groups (N=6), and each group was primarily immunized by dorsal-subcutaneous administration of (1) ovalbumin (OVA) (5 μg) dissolved in saline as an antigen (OVA single administration group), (2) OVA (5 μg) and SZ83 (0.256 μmol) dissolved or dispersed in 5% αCD-added saline (SZ83 administration group), (3) OVA (5 μg) and SZ84 (0.256 μmol) dissolved or dispersed in 5% αCD-added saline (SZ84 administration group), (4) OVA (5 μg) and SZ86 (0.256 μmol) dissolved or dispersed in 5% αCD-added saline (SZ86 administration group), (5) OVA (5 μg) and SZ89 (0.256 μmol) dissolved or dispersed in 5% αCD-added saline (SZ89 administration group), (6) OVA (5 μg) and SZ90 (0.256 μmol) dissolved or dispersed in 5% αCD-added saline (SZ90 administration group), each per mouse. After 12 days, blood samples were collected under anesthesia, and the obtained serum samples were subjected to the measurement of an anti-OVA-specific IgG1 subclass antibody.
Measurement Method of Concentration of anti-OVA-specific IgG1 Subclass Antibody and anti-OVA-specific IgG2a Subclass Antibody
To a 96 well plate was added 5 μg/ml OVA at 100 μl/well, and the mixture was incubated at 4° C. overnight. After incubation, the mixture was washed three times with 200 μl of PBS-T (PBS+0.05% (v/v) Tween 20) per well, and blocked with 100 μl of 5% FCS/PBS solution per well at room temperature for 1 to for 2 hr. Thereafter, the mixture was washed three times with PBS-T (200 μl/well), a diluted serum sample (100 μl/well) or the same amount of 5% FCS/PBS solution as a control was added, to and the mixture was incubated at 37° C. for 1 hr. To calculate concentration of the antibody, the standard of an anti-OVA-specific IgG1 subclass antibody diluted with 2% FCS/PBS solution was added at 100 ng/ml, 50 ng/ml, 25 ng/ml, 12.5 ng/ml, 6.25 ng/ml, 3.125 ng/ml, 1.56 ng/ml, 0.781 ng/ml, 0.391 ng/ml, 0.195 ng/ml, 0.098 ng/ml, 0 ng/ml, per 1 well. When an anti-OVA-specific IgG2a subclass antibody was measured, the standard of an anti-OVA-specific IgG2a subclass antibody was added at 50 ng/ml, 25 ng/ml, 12,5 ng/ml, 6.25 ng/ml, 3.125 ng/ml, 1.56 ng/ml, 0.781 ng/ml, 0.391 ng/ml, 0.195 ng/ml, 0.098 ng/ml, 0.049 ng/ml, 0 ng/ml, per 1 well. […] Thereafter, the mixture was washed five times with PBS-T (200 μl/well), a diluted anti-biotin-HRP antibody was added (100 μl/well), and the mixture was incubated at 37° C. for another 30 min. Thereafter, the mixture was washed five times with PBS-T (200 μl/well), TMB substrate solution was added (100 μl/well), and the mixture was incubated at room temperature for 10- for 15 min. Thereafter, a reaction quenching liquid (2N sulfuric acid solution) was added (50 μl/well) to discontinue a color developing reaction, and the absorbance (OD Value=450 nm) was measured by a microplate reader. A standard curve was drawn from the measured OD values, and the concentration was calculated.
8-Week-old female BALB/c mice were divided into groups (N=6), and each group was primarily immunized by dorsal-subcutaneous administration of (1) ovalbumin (OVA) (5 μg) dissolved in saline as an antigen (OVA single administration group), (2) OVA (5 μg) and SZ92 (0.256 μmol) dissolved or dispersed in 5% αCD-added saline (SZ92 administration group), (3) OVA (5 μg) and SZ94 (0.256 μmol) dissolved or dispersed in 5% αCD-added saline (SZ94 administration group), (4) OVA (5 μg) and SZ95 (0.256 μmol) dissolved or dispersed in 5% αCD-added saline (SZ95 administration group), (5) OVA (5 μg) and SZ96 (0.256 μmol) dissolved or dispersed in 5% αCD-added saline (SZ96 administration group), each per mouse. After 12 days, blood samples were collected under anesthesia, and the obtained serum samples were subjected to the measurement of anti-OVA-specific IgG1 subclass antibody.

Row | Compound | anti-OVA-specific IgG1 subclass antibody production after primary immunization as compared to the OVA single administration group
2 | CCCCCCCCCCCCCCCCCCCCCC(=O)N[C@@H](CCCNC(=N)N)C(=O)OCCCCCC.Cl [SZ121, N^2-docosanoyl-L-arginine hexyl ester hydrochloride salt] | significantly increased
3 | CCCCCCCCCCCCCCCCCCCCCC(=O)N[C@@H](CC(C)C)C(=O)OCCCCCC [SZ124, N-docosanoyl-L-leucine hexyl ester] | tended to increase
4 | CCCCCCCCCCCCCCCCCCCCCC(=O)N[C@@H](CC(C)C)C(=O)N(CC)CC [SZ125, N^2-docosanoyl-N^1,N^1-diethyl-L-leucinamide] | tended to increase

Same assay, conditions: Example 18; OVA 5 μg + 0.256 μmol in 5% αCD saline s.c.; serum after 12 days

Row | Compound | anti-OVA-specific IgG1 subclass antibody production after primary immunization as compared to the OVA single administration group
5 | CCCCCCCCCCCCCCCCCCCCCC(=O)N[C@@H](CCCNC(=N)N)C(N)=O.Cl [SZ128, N^2-docosanoyl-L-arginine amide hydrochloride salt] | significantly increased
6 | CCCCCCCCCCCCCCCCCCCCCC(=O)N[C@@H](CCCNC(=N)N)C(=O)N(CC)CC.Cl [SZ129, N^2-docosanoyl-N^1,N^1-diethyl-L-arginine amide hydrochloride salt] | significantly increased
7 | CCCCCCOC(=O)[C@H](CCCNC(=N)N)NC(=O)CCCCC.Cl [SZ130, N^2-hexanoyl-L-arginine hexyl ester hydrochloride salt] | tended to increase
8 | CCCCCCCCCCCCCCCC(=O)N[C@@H](CCC(=O)O)C(=O)OCCCCCC [SZ134, N-hexadecanoyl-L-glutamic acid hexyl ester] | tended to increase
9 | CCCCCCCCCCCCCCCCCCCCCC(=O)N[C@@H](CCC(=O)O)C(=O)OCCCCCC [SZ135, N-docosanoyl-L-glutamic acid hexyl ester] | tended to increase
